{"source": "patent US20070128217A1", "about": "(priority 2003, published 2007)", "key": {"[1]": {"system": "antibodies in sera from SARS patients (sera 1a, 1b, 2, 6, 37, 62, London, SARS-yellow, SARS-green)", "type": "binding, human", "parameters": "Binding of serum 6 to linear peptides of protein X1 of SARS-CoV Urbani / Binding of serum 37 to linear peptides of protein X1 of SARS-CoV Urbani / Binding of serum 6 to looped/cyclic peptide (PEPSCAN-ELISA) / Binding of serum 37 to looped/cyclic peptide (PEPSCAN-ELISA) / Binding of serum 37 to looped/cyclic peptides of protein X1 of SARS-CoV Urbani / Binding of serum 6 to linear peptides of protein X2 / Binding of serum 37 to linear peptides of protein X2 / Binding of serum 37 to looped/cyclic peptides of protein X2 of SARS-CoV Urbani / Binding of serum 6 to linear peptides of protein M of SARS-CoV Urbani / Binding of serum 37 to linear peptides of protein M of SARS-CoV Urbani / Binding of serum 6 to looped/cyclic peptides of protein M of SARS-CoV Urbani / Binding of serum 37 to looped/cyclic peptides of protein M of SARS-CoV Urbani / Binding of serum 6 to linear peptides of protein X3 of SARS-CoV Urbani / Binding of serum 37 to linear peptides of protein X3 of SARS-CoV Urbani / Binding of serum 37 to looped/cyclic peptides of protein X3 of SARS-CoV Urbani / Binding of serum 6 to linear peptides of protein X4 of SARS-CoV Urbani / Binding of serum 37 to linear peptides of protein X4 of SARS-CoV Urbani / Binding of serum 37 to looped/cyclic peptides of protein X4 of SARS-CoV Urbani / Binding of serum 6 to linear peptides of protein X5 of SARS-CoV Urbani / Binding of serum 37 to linear peptides of protein X5 of SARS-CoV Urbani / Binding of serum 37 to looped/cyclic peptides of protein X5 of SARS-CoV Urbani / Binding of serum 6 to linear peptides of protein N of SARS-CoV Urbani / Binding of serum 37 to linear peptides of protein N of SARS-CoV Urbani / Binding of serum 6 to linear peptide (PEPSCAN-ELISA) / Binding of serum 1a to looped/cyclic peptides of protein N of SARS-CoV Urbani / Binding of serum 1b to looped/cyclic peptides of protein N of SARS-CoV Urbani / Binding of serum 2 to looped/cyclic peptides of protein N of SARS-CoV Urbani / Binding of serum 6 to looped/cyclic peptides of protein N of SARS-CoV Urbani / Binding of serum 37 to looped/cyclic peptides of protein N of SARS-CoV Urbani / Binding of serum 62 to looped/cyclic peptides of protein N of SARS-CoV Urbani / Binding of serum London to looped/cyclic peptides of protein N of SARS-CoV Urbani / Binding of serum SARS-green to looped/cyclic peptides of protein N of SARS-CoV Urbani: unit not given here"}, "[2]": {"system": "control sera (pooled serum of ten healthy LUMC hospital workers; commercial negative donor pooled serum from the Dutch bloodbank)", "type": "binding, human", "parameters": "Binding of Control serum LUMC to linear peptides / Binding of Control serum Blood-bank to linear peptides / Binding of Control serum LUMC to looped peptides / Binding of Control Serum Blood-Bank to Looped peptides / Binding of Control serum LUMC to linear peptides of the protein M of SARS-CoV Urbani / Binding of Control serum Blood-bank to linear peptides of the protein M of SARS-CoV Urbani / Binding of Control serum LUMC to looped peptides of the protein M of SARS-CoV Urbani / Binding of Control Serum Blood-Bank to Looped peptides of the protein M of SARS-CoV Urbani: unit not given here"}, "[3]": {"system": "rabbit serum obtained by immunizing a rabbit with the SARS-CoV strain Frankfurt 1", "type": "binding", "parameters": "Binding of a rabbit serum to linear peptides / Binding of a rabbit serum to looped peptides / Rabbit serum linear peptides / Rabbit serum looped peptides / Binding of a rabbit serum to linear peptides of protein N of SARS-CoV Urbani (Rabbit serum linear peptides) / Binding of a rabbit serum to looped/cyclic peptides of protein N of SARS-CoV Urbani (Rabbit serum looped peptides): unit not given here"}}, "data": [{"sequence": "TATIPLQASLPFGWL", "values": [{"measurement": "Binding of serum 1a to linear peptides of protein X1 of SARS-CoV Urbani", "setting": "[1]", "value": 0.9}, {"measurement": "Binding of serum 1a to looped/cyclic peptide (PEPSCAN-ELISA)", "setting": "[1]", "value": 0.7}, {"measurement": "Binding of serum 1b to linear peptides of protein X1 of SARS-CoV Urbani", "setting": "[1]", "value": 0.8}, {"measurement": "Binding of serum 1b to looped/cyclic peptide (PEPSCAN-ELISA)", "setting": "[1]", "value": 0.6}, {"measurement": "Binding of serum 2 to linear peptides of protein X1 of SARS-CoV Urbani", "setting": "[1]", "value": 0.6}, {"measurement": "Binding of serum 2 to looped/cyclic peptide (PEPSCAN-ELISA)", "setting": "[1]", "value": 0.5}, {"measurement": "Binding of serum 6 to linear peptides of protein X1 of SARS-CoV Urbani", "setting": "[1]", "value": 0.7}, {"measurement": "Binding of serum 6 to looped/cyclic peptide (PEPSCAN-ELISA)", "setting": "[1]", "value": 0.5}, {"measurement": "Binding of serum 37 to linear peptides of protein X1 of SARS-CoV Urbani", "setting": "[1]", "value": 0.7}, {"measurement": "Binding of serum 37 to looped/cyclic peptide (PEPSCAN-ELISA)", "setting": "[1]", "value": 0.8}, {"measurement": "Binding of serum 62 to linear peptides of protein X1 of SARS-CoV Urbani", "setting": "[1]", "value": 0.7}, {"measurement": "Binding of serum 62 to looped/cyclic peptide (PEPSCAN-ELISA)", "setting": "[1]", "value": 0.8}, {"measurement": "Binding of serum London to linear peptides of protein X1 of SARS-CoV Urbani", "setting": "[1]", "value": 0.3}, {"measurement": "Binding of serum London to looped/cyclic peptide (PEPSCAN-ELISA)", "setting": "[1]", "value": 0.3}, {"measurement": "Binding of serum SARS-green to linear peptides of protein X1 of SARS-CoV Urbani", "setting": "[1]", "value": 0.5}, {"measurement": "Binding of serum SARS-green to looped/cyclic peptide (PEPSCAN-ELISA)", "setting": "[1]", "value": 0.5}, {"measurement": "Binding of serum SARS-yellow to linear peptides of protein X1 of SARS-CoV Urbani", "setting": "[1]", "value": 0.3}, {"measurement": "Binding of serum SARS-yellow to looped/cyclic peptide (PEPSCAN-ELISA)", "setting": "[1]", "value": 0.5}, {"measurement": "Binding of Control Serum Blood-Bank to Looped peptides", "setting": "[2]", "value": 0.8}, {"measurement": "Binding of Control serum Blood-bank to linear peptides", "setting": "[2]", "value": 1.0}, {"measurement": "Binding of Control serum LUMC to linear peptides", "setting": "[2]", "value": 0.8}, {"measurement": "Binding of Control serum LUMC to looped peptides", "setting": "[2]", "value": 0.8}, {"measurement": "Binding of a rabbit serum to linear peptides", "setting": "[3]", "value": 0.1}, {"measurement": "Binding of a rabbit serum to looped peptides", "setting": "[3]", "value": 0.6}]}, {"sequence": "TLACFVLAAVYRINW", "values": [{"measurement": "Binding of serum 1a to linear peptides of protein M of SARS-CoV Urbani", "setting": "[1]", "value": 0.7}, {"measurement": "Binding of serum 1a to looped/cyclic peptides of protein M of SARS-CoV Urbani", "setting": "[1]", "value": 0.7}, {"measurement": "Binding of serum 1b to linear peptides of protein M of SARS-CoV Urbani", "setting": "[1]", "value": 0.5}, {"measurement": "Binding of serum 1b to looped/cyclic peptides of protein M of SARS-CoV Urbani", "setting": "[1]", "value": 0.5}, {"measurement": "Binding of serum 2 to linear peptides of protein M of SARS-CoV Urbani", "setting": "[1]", "value": 0.5}, {"measurement": "Binding of serum 2 to looped/cyclic peptides of protein M of SARS-CoV Urbani", "setting": "[1]", "value": 0.6}, {"measurement": "Binding of serum 6 to linear peptides of protein M of SARS-CoV Urbani", "setting": "[1]", "value": 0.3}, {"measurement": "Binding of serum 6 to looped/cyclic peptides of protein M of SARS-CoV Urbani", "setting": "[1]", "value": 0.7}, {"measurement": "Binding of serum 37 to linear peptides of protein M of SARS-CoV Urbani", "setting": "[1]", "value": 0.8}, {"measurement": "Binding of serum 37 to looped/cyclic peptides of protein M of SARS-CoV Urbani", "setting": "[1]", "value": 0.6}, {"measurement": "Binding of serum 62 to linear peptides of protein M of SARS-CoV Urbani", "setting": "[1]", "value": 0.8}, {"measurement": "Binding of serum 62 to looped/cyclic peptides of protein M of SARS-CoV Urbani", "setting": "[1]", "value": 0.6}, {"measurement": "Binding of serum London to linear peptides of protein M of SARS-CoV Urbani", "setting": "[1]", "value": 0.3}, {"measurement": "Binding of serum London to looped/cyclic peptides of protein M of SARS-CoV Urbani", "setting": "[1]", "value": 0.3}, {"measurement": "Binding of serum SARS-green to linear peptides of protein M of SARS-CoV Urbani", "setting": "[1]", "value": 0.3}, {"measurement": "Binding of serum SARS-green to looped/cyclic peptides of protein M of SARS-CoV Urbani", "setting": "[1]", "value": 0.2}, {"measurement": "Binding of serum SARS-yellow to linear peptides of protein M of SARS-CoV Urbani", "setting": "[1]", "value": 0.0}, {"measurement": "Binding of serum SARS-yellow to looped/cyclic peptides of protein M of SARS-CoV Urbani", "setting": "[1]", "value": 0.5}, {"measurement": "Binding of Control Serum Blood-Bank to Looped peptides of the protein M of SARS-CoV Urbani", "setting": "[2]", "value": 0.8}, {"measurement": "Binding of Control serum Blood-bank to linear peptides of the protein M of SARS-CoV Urbani", "setting": "[2]", "value": 0.5}, {"measurement": "Binding of Control serum LUMC to linear peptides of the protein M of SARS-CoV Urbani", "setting": "[2]", "value": 0.2}, {"measurement": "Binding of Control serum LUMC to looped peptides of the protein M of SARS-CoV Urbani", "setting": "[2]", "value": 0.7}, {"measurement": "Rabbit serum linear peptides", "setting": "[3]", "value": 0.5}, {"measurement": "Rabbit serum looped peptides", "setting": "[3]", "value": 0.1}]}, {"sequence": "FLYIIKLVFLWLLWP", "values": [{"measurement": "Binding of serum 1a to linear peptides of protein M of SARS-CoV Urbani", "setting": "[1]", "value": 0.8}, {"measurement": "Binding of serum 1b to linear peptides of protein M of SARS-CoV Urbani", "setting": "[1]", "value": 0.5}, {"measurement": "Binding of serum 2 to linear peptides of protein M of SARS-CoV Urbani", "setting": "[1]", "value": 1.0}, {"measurement": "Binding of serum 6 to linear peptides of protein M of SARS-CoV Urbani", "setting": "[1]", "value": 0.3}, {"measurement": "Binding of serum 37 to linear peptides of protein M of SARS-CoV Urbani", "setting": "[1]", "value": 0.8}, {"measurement": "Binding of serum 62 to linear peptides of protein M of SARS-CoV Urbani", "setting": "[1]", "value": 0.9}, {"measurement": "Binding of serum London to linear peptides of protein M of SARS-CoV Urbani", "setting": "[1]", "value": 0.3}, {"measurement": "Binding of serum SARS-green to linear peptides of protein M of SARS-CoV Urbani", "setting": "[1]", "value": 0.3}, {"measurement": "Binding of serum SARS-yellow to linear peptides of protein M of SARS-CoV Urbani", "setting": "[1]", "value": 0.1}, {"measurement": "Recognition of the peptide by sera of SARS-CoV infected individuals, and form (linear, looped/cyclic) in which it is recognized", "setting": "[1]", "value": "recognized in looped/cyclic form"}, {"measurement": "Binding of Control Serum Blood-Bank to Looped peptides of the protein M of SARS-CoV Urbani", "setting": "[2]", "value": 0.8}, {"measurement": "Binding of Control serum Blood-bank to linear peptides of the protein M of SARS-CoV Urbani", "setting": "[2]", "value": 0.8}, {"measurement": "Binding of Control serum LUMC to linear peptides of the protein M of SARS-CoV Urbani", "setting": "[2]", "value": 0.4}, {"measurement": "Binding of Control serum LUMC to looped peptides of the protein M of SARS-CoV Urbani", "setting": "[2]", "value": 0.9}, {"measurement": "Rabbit serum linear peptides", "setting": "[3]", "value": 0.4}, {"measurement": "Rabbit serum looped peptides", "setting": "[3]", "value": 0.4}]}]}
